The values below come from patent US11285127B2, “Compositions and methods for lowering triglycerides without raising LDL-C levels in a subject on concomitant statin therapy” (Amarin Pharmaceuticals Ireland Limited, priority 2013, dated 2022).

The test system of this test is patients with fasting triglyceride levels >200 mg/dl and <500 mg/dl despite statin therapy. Nature of the test: 12-week study: inflammatory biomarkers (ICAM-1, interleukin, PAI-1, hsCRP). It is filed as in vivo, human. The settings on record: MITT; for ICAM-1, Difference from placebo, Estimated median / IL-6, Difference from placebo, Estimated median / PAI-1, Difference from placebo, Estimated median / hsCRP, Difference from placebo, Estimated median: Week 12; for hsCRP, Difference from placebo, Estimated median: post-hoc, median percent change from baseline; for ICAM-1, Week 12 EP Median (IQR) / IL-6, Week 12 EP Median (IQR) / PAI-1, Week 12 EP Median (IQR) / hsCRP, Week 12 EP Median (IQR): Week 12 endpoint (LOCF); for hsCRP, Week 12 EP Median (IQR) / hsCRP, Median % Chg from BL (IQR): post-hoc analysis; for ICAM-1, change from Baseline, Median (IQR) / IL-6, change from Baseline, Median (IQR) / PAI-1, change from Baseline, Median (IQR) / hsCRP, Median % Chg from BL (IQR): baseline to Week 12. The text has this: Parameters (a)-(z) can be measured in accordance with any clinically acceptable methodology. For example, triglycerides, total cholesterol, HDL-C and fasting blood sugar can be sample from serum and analyzed using standard photometry techniques. VLDL-TG, LDL-C and VLDL-C can be calculated or determined using serum lipoprotein fractionation by preparative ultracentrifugation and subsequent quantitative analysis by refractometry or by analytic ultracentrifugal methodology. Apo A1, Apo B and hsCRP can be determined from serum using standard nephelometry techniques. Lipoprotein (a) can be determined from serum using standard turbidimetric immunoassay techniques. LDL particle number and particle size can be determined using nuclear magnetic resonance (NMR) spectrometry. Remnants lipoproteins and LDL-phospholipase A2 can be determined from EDTA plasma or serum and serum, respectively, using enzymatic immunoseparation techniques. Oxidized LDL, intercellular adhesion molecule-1 and interleukin-2 levels can be determined from serum using standard enzyme immunoassay techniques. These techniques are described in detail in standard textbooks, for example Tietz Fundamentals of Clinical Chemistry, 6th Ed. (Burtis, Ashwood and Borter Eds.), WB Saunders Company.
A multi-center, placebo-controlled, randomized, double-blind, 12-week study was performed to evaluate the efficacy and safety of >96% E-EPA in patients with fasting triglyceride levels >200 mg/dl and <500 mg/dl despite statin therapy (the mean of two qualifying entry values needed to be >185 mg/dl and at least one of the values needed to be >200 mg/dl). The primary objective of the study was to determine the efficacy of >96% E-EPA 2 g daily and 4 g daily, compared to placebo, in lowering fasting TG levels in patients with high risk for cardiovascular disease and with fasting TG levels 200 mg/dl and <500 mg/dl, despite treatment to LDL-C goal on statin therapy.
The secondary objectives of this study were the following: • 1. To determine the safety and tolerability of >96% E-EPA 2 g daily and 4 g daily; • 2. To determine the effect of >96% E-EPA on lipid and apolipoprotein profiles including total cholesterol (TC), non-high-density lipoprotein cholesterol (non-HDL-C), low density lipoprotein cholesterol (LDL-C), high density lipoprotein cholesterol (HDL-C), and […]; • 3. To determine the effect of >96% E-EPA on lipoprotein associated phospholipase A2 (Lp-PLA2) from baseline to week 12; • 4. To determine the effect of >96% E-EPA on low-density lipoprotein (LDL) particle number and size; • 5. To determine the effect of >96% E-EPA on oxidized LDL; • 6. To determine the effect of >96% E-EPA on fasting plasma glucose (FPG) and hemoglobin A1c (HbA1c); • 7. To determine the effect of >96% E-EPA on insulin resistance; • 8. To determine the effect of >96% E-EPA on high-sensitivity C-reactive protein (hsCRP); • 9. To determine the effects of >96% E-EPA 2 g daily and 4 g daily on the incorporation of fatty acids into red blood cell membranes and into plasma phospholipids; • 10. To explore the relationship between baseline fasting TG levels and the reduction in fasting TG levels; and • 11. To explore the relationship between changes of fatty acid concentrations in plasma and red blood cell membranes, and the reduction in fasting TG levels.
The primary efficacy variable for the double-blind treatment period was percent change in TG from baseline to Week 12 endpoint. […]

[1] abbreviates: AMR101 2 g/d + statin vs placebo.
Setting [2] is: AMR101 4 g/d + statin vs placebo.

In the case of `CC/C=C\C/C=C\C/C=C\C/C=C\C/C=C\CCCC(=O)OCC` [AMR101, ethyl eicosapentaenoate], under setting [1], the “ICAM-1, Difference from placebo, Estimated median” value is -6.0 ng/mL; the “IL-6, Difference from placebo, Estimated median” value is recorded as 0.1 pg/mL; the “PAI-1, Difference from placebo, Estimated median” value is recorded as 12.1 ng/mL; the “hsCRP, Difference from placebo, Estimated median” value was −6.8%. Further, for the setting “AMR101 2 g/d + statin”, the “ICAM-1, Week 12 EP Median (IQR)” value was 268.5 (89.0) ng/mL; the “IL-6, Week 12 EP Median (IQR)” value is 2.7 (2.3) pg/mL; the “PAI-1, Week 12 EP Median (IQR)” value was 90.3 (67.4) ng/mL; the “hsCRP, Week 12 EP Median (IQR)” value is on record as 2.5 (3.4) mg/L. For the same compound, where the note is “AMR101 2 g/d + statin”, the “ICAM-1, change from Baseline, Median (IQR)” value is listed as 1.5 (37.0) ng/mL; the “IL-6, change from Baseline, Median (IQR)” value was 0.2 (1.3) pg/mL; the “PAI-1, change from Baseline, Median (IQR)” value is 14.6 (38.8) ng/mL; the “hsCRP, Median % Chg from BL (IQR)” value is recorded as 10.3 (88.6) %. In addition, under setting [2], the “ICAM-1, Difference from placebo, Estimated median” value was -6.0 ng/mL; the “IL-6, Difference from placebo, Estimated median” value was -0.1 pg/mL; the “PAI-1, Difference from placebo, Estimated median” value was 0.6 ng/mL; the “hsCRP, Difference from placebo, Estimated median” value is −22.0%. Further, under “AMR101 4 g/d + statin”, the “ICAM-1, Week 12 EP Median (IQR)” value is given as 270.0 (110.0) ng/mL; the “IL-6, Week 12 EP Median (IQR)” value is 2.6 (2.1) pg/mL; the “PAI-1, Week 12 EP Median (IQR)” value was 85.6 (86.3) ng/mL; the “hsCRP, Week 12 EP Median (IQR)” value was 2.0 (3.0) mg/L. Besides, for the setting “AMR101 4 g/d + statin”, the “ICAM-1, change from Baseline, Median (IQR)” value is listed as 2.5 (40.0) ng/mL; the “IL-6, change from Baseline, Median (IQR)” value is reported as 0.1 (1.8) pg/mL; the “PAI-1, change from Baseline, Median (IQR)” value is −3.1 (45.2) ng/mL; the “hsCRP, Median % Chg from BL (IQR)” value is on record as −2.4 (62.8) %.
